This note sets out measurements from patent publication US8916570B2 (The United States of America, as represented by the …, priority 2008, dated 2014).

Bounds are passed on as bounds.

For assay [1], the target named is mouse A2A adenosine receptor (Mus musculus, UniProt Q60613). Put plainly: Competition radioligand binding, mouse A2A AR, HEK293 membranes (Table 1). To be noted: for inhibition at 100 µM: read-out: A2A % inhib.
In assay [2] the target is T1, human A3 adenosine receptor (Homo sapiens, UniProt P0DMS8).
T1 sequence (P0DMS8 1-318): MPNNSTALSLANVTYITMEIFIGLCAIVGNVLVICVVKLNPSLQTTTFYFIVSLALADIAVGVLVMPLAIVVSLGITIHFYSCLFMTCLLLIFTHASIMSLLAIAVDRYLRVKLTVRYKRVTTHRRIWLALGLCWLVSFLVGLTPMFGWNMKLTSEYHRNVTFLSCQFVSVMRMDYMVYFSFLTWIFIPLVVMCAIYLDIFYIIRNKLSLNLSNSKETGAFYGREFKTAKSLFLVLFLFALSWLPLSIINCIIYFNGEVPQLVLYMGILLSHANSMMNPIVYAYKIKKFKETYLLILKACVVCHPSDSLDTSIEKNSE
Put plainly: [125I]I-AB-MECA binding, human A3 AR, CHO membranes (Table 1). The settings on record: for Ki: A3 Ki, species H (human); for Selectivity A1/A3: human.

For assay [3], the target named is human A2A adenosine receptor (Homo sapiens, UniProt P29274). Put plainly: Radioligand binding, human A2A AR (Table 1). The settings on record: for inhibition at 10 µM: read-out: A2A % inhib.
Sequence of human A2A adenosine receptor (P29274 whole entry): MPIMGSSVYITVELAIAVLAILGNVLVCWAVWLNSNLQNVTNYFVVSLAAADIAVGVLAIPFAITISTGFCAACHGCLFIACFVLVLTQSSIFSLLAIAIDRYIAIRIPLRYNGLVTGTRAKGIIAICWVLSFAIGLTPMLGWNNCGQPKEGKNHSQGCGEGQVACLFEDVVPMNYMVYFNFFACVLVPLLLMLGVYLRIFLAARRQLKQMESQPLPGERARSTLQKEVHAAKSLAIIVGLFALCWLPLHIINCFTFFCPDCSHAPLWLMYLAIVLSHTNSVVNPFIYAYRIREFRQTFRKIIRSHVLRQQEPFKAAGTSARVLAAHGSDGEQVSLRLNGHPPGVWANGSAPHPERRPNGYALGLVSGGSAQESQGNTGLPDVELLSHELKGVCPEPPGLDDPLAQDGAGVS
Assay [4] deals with T2, mouse A3 adenosine receptor (Mus musculus, UniProt Q61618).
T2 sequence (Q61618 1-319): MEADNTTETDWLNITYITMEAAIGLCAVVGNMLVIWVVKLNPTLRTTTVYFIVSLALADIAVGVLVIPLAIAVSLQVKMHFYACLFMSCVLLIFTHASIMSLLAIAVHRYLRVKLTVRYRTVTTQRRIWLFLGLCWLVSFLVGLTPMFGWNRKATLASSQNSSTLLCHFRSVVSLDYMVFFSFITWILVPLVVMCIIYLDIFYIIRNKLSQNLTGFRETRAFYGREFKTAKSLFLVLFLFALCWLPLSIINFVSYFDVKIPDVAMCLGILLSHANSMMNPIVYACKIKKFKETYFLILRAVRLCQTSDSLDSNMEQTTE
Put plainly: Competition radioligand binding, mouse A3 AR, HEK293 membranes (Table 1). The settings on record: for Ki: A3 Ki, species M (mouse), [125I]I-AB-MECA; for Selectivity A1/A3: mouse.

Assay [5] concerns the target T3, human A1 adenosine receptor (Homo sapiens, UniProt P30542).
T3 sequence (P30542 1-326): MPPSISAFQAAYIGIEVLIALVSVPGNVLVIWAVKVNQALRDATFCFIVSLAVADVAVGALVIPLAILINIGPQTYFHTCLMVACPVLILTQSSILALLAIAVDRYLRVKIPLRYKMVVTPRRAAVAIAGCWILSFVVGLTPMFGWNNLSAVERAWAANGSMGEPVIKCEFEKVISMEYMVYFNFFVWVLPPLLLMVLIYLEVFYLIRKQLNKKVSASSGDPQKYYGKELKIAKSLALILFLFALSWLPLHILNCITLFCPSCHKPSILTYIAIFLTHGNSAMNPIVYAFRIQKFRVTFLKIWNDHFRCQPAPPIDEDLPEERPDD
Put plainly: Radioligand binding, human A1 AR, CHO membranes (Table 1). The settings on record: for A1 % inhib.: species H (human), percent in parentheses, concentration not marked.

The target of assay [6] is T4, mouse A1 adenosine receptor (Mus musculus, UniProt Q60612).
T4 sequence (Q60612 1-326): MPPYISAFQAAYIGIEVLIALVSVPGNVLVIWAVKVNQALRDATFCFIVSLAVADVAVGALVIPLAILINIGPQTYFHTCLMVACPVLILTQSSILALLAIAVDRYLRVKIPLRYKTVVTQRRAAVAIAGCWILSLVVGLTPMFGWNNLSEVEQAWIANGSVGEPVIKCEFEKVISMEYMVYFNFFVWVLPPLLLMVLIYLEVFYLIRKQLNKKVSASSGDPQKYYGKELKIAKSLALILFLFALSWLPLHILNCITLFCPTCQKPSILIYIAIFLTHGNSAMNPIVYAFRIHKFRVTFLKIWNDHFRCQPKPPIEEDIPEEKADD
In words: Competition radioligand binding, mouse A1 AR, HEK293 membranes (Table 1).

In another assay the target is T5, hA3AR (Homo sapiens, UniProt P0DMS8).
T5 construct: expressed in transfected cells; host or cells: CHO
T5 sequence (P0DMS8 1-318): T1 sequence (P0DMS8 1-318)
In words: Binding at hA3AR, CHO membranes (Example 7). To be noted: read-out: Affinity (Ki, nM) hA3.

Another assay addresses T6, hA2AAR (Homo sapiens, UniProt P29274).
T6 construct: expressed in transfected cells
In words: Binding at hA2AAR, HEK-293 membranes (Example 7). The settings on record: read-out: % inhibition hA2A. The protocol:
After harvesting, cells were homogenized and suspended in PBS.
Nonspecific binding was determined using a final concentration of 10 μM 51 diluted with the buffer.

In another assay the target is T7, hA1AR (Homo sapiens, UniProt P30542).
T7 construct: expressed in transfected cells; host or cells: CHO
T7 sequence (P30542 1-326): T3 sequence (P30542 1-326)
In words: Binding at hA1AR, CHO membranes (Example 7). The settings on record: read-out: % inhibition hA1.

Sequence of mouse A2A adenosine receptor (Q60613 whole entry): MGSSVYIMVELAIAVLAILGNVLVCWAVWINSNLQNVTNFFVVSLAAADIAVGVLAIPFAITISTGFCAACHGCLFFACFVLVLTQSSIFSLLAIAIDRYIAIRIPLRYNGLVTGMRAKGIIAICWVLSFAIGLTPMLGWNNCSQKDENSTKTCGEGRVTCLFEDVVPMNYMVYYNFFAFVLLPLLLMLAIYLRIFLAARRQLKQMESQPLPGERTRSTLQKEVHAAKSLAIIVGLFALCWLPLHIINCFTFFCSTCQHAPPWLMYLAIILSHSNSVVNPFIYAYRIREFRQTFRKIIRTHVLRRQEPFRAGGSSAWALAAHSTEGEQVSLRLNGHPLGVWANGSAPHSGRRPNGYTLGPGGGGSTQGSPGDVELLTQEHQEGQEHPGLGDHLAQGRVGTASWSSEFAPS
T6 sequence (P29274 whole entry): as the sequence (P29274 whole entry) above
Protocol for hA3AR: CHO cells stably expressing the recombinant hA1, hA3, and rA3Rs, and HEK-293 cells stably expressing the hA2AAR were cultured in Dulbecco's modified Eagle medium (DMEM) and F12 (1:1) supplemented with 10% fetal bovine serum, 100 units/mL penicillin, 100 μg/mL streptomycin, and 2 μmol/mL glutamine. In addition, 800 μg/mL geneticin was added to the A2A media, while 500 μg/mL hygromycin was added to the A1 and A3 media. After harvesting, cells were homogenized and suspended in PBS. Cells were then centrifuged at 240 g for 5 min, and the pellet was resuspended in 50 mM Tris-HCl buffer (pH 7.5) containing 10 mM MgCl2. The suspension was homogenized and was then ultra-centrifuged at 14,330 g for 30 min at 4° C. […] The protein concentration was measured using the BCA Protein Assay Kit from Pierce Biotechnology, Inc. (Rockford, Ill.).
Into each tube in the binding assay was added 50 μL of increasing concentrations of the test ligand in Tris-HCl buffer (50 mM, pH 7.5) containing 10 mM MgCl2, 50 μL of the appropriate agonist radioligand, and finally 100 μL of membrane suspension. […] For the A2AAR (20 μg/tube) the radioligand used was [^3H]53 (10 nM). […] Nonspecific binding was determined using a final concentration of 10 μM 51 diluted with the buffer. The mixtures were incubated at 25° C. for 60 min in a shaking water bath. Binding reactions were terminated by filtration through Brandel GF/B filters under a reduced pressure using a M-24 cell harvester (Brandel, Gaithersburg, Md.). Filters were washed three times with 3 mL of 50 mM ice-cold Tris-HCl buffer (pH 7.5). […] Filters for A3AR binding were counted using a Packard COBRA™ II γ-counter. The Ki values were determined using GraphPad Prism for all assays.

As for `CNC(=O)C12CC1C(n1cnc3c(NCc4cccc(Cl)c4)nc(C#CCCCC(=O)NCCN)nc31)C(O)C2O` (stereo not drawn) [Compound 8], the inhibition at 100 µM in assay [1] was 31%. The Ki in [2] was 2.17 ± 0.51 nM; in assay [4], 8.6 ± 1.02 nM; in assay [5] it was 454 ± 44 nM; in assay [6], 546 ± 62 nM. Also, the “Selectivity A1/A3” value was 209 in [2] and 64 in assay [4]. The inhibition at 10 µM in assay [3] came out at 81%.
`CNC(=O)C12CC1C(n1cnc3c(NCc4cccc(Cl)c4)nc(C#CCCC(=O)NCCN)nc31)C(O)C2O` (stereo not drawn) [Compound 37, (1′S, 2′R, 3′S, 4′S, 5′S)-4′-[6-(3-Chlorobenzylamino) 2-(4-(β-aminoethylaminocarbonyl)-1-butynyl)-9-yl]-2′,3′-dihydroxybicyclo[3.1.0]hexane-1′-carboxylic acid N-methylamide]: the Ki in assay [2] is 2.5 ± 0.5 nM; in assay [3] it was 550 ± 83 nM. Further, the “Selectivity A1/A3” value in [2] is given as “up to 1900”. Further, in [5], the A1 % inhib. result is on record as “(25 ± 12%)”.
Consider `CNC(=O)C12CC1C(n1cnc3c(NCc4cccc(Cl)c4)nc(C#CCCCCC(=O)O)nc31)C(O)C2O` (stereo not drawn) [Compound 34], for which the affinity in assay [2], expressed as Ki, was 12.4 ± 1.8 nM. In addition, the A1 % inhib. entry in assay [5] is listed as “(5 ± 3%)”.
As for `CNC(=O)C12CC1C(n1cnc3c(NCc4cccc(Cl)c4)nc(C#CCCC(=O)NCCNC(=O)CCCCC4SCC5NC(=O)NC54)nc31)C(O)C2O` (stereo not drawn) [Compound 42, (1′S,2′R,3′S,4′S,5′S)-4′-[6-(3-Chlorobenzylamino)-2-(N-biotinyl(β-aminoethylaminocarbonyl)-1-butynyl)-9-yl]-2′,3′-dihydroxybicyclo[3.1.0]hexane-1′-carboxylic acid N-methylamide], the affinity in assay [2] corresponds to a Ki of 36.4 ± 5.6 nM. Moreover, in assay [5], the A1 % inhib. entry is listed as “(13 ± 6%)”.
Consider `CNC(=O)C12CC1C(n1cnc3c(NCc4cccc(Cl)c4)nc(C#CCCCC(=O)OC)nc31)C(O)C2O` (stereo not drawn) [Compound 6, (1′S,2′R,3′S,4′S,5′S)-4′-[6-(3-Chlorobenzylamino)-2-(5-methoxycarbonyl-1-pentynyl)-9-yl]-2′,3′-dihydroxybicyclo[3.1.0]hexane-1′-carboxylic acid N-methylamide], for which the inhibition at 100 µM in assay [1] stood at 50%. In assay [3], the inhibition at 10 µM came to 49%. In addition, the figures for the Ki in assay [4], in [5] and in [6] were 4.65 ± 0.53 nM, 482 ± 23 nM and 1340 ± 330 nM, respectively.
As for `CCN1C(=CC=CC=CC2=[N+](CCCCCC(=O)NCCNC(=O)CCC#Cc3nc(NCc4cccc(Cl)c4)c4ncn(C5C(O)C(O)C6(C(=O)NC)CC56)c4n3)c3ccc(S(=O)(=O)[O-])cc3C2(C)C)C(C)(C)c2cc(S(=O)(=O)O)ccc21` (stereo not drawn) [Compound 44, (1′S,2′R,3′S,4′S,5′S)-4′-[6-(3-Chlorobenzylamino)-2-(N-Cyanine(β-aminoethylaminocarbonyl)-1-butynyl)-9-yl]-2′,3′-dihydroxybicyclo[3.1.0]hexane-1′-carboxylic acid N-methylamide], the A1 % inhib. result in [5] was “(10 ± 4%)”.
Turning to `CNC(=O)C12CC1C(n1cnc3c(NCc4cccc(Cl)c4)nc(C#CCCCC(=O)O)nc31)C(O)C2O` (stereo not drawn) [Compound 7, (1′S,2′R,3′S,4′S,5′S)-4′-[6-(3-chlorobenzylamino)-2-(5-hydroxycarbonyl-1-pentynyl)-9-yl]-2′,3′-dihydroxybicyclo[3.1.0]hexane-1′-carboxylic acid N-methylamide], in assay [1], the inhibition at 100 µM is 8%. Moreover, the inhibition at 10 µM in assay [3] came to 43%.
With `CNC(=O)C12CC1C(n1cnc3c(NCc4cccc(Cl)c4)nc(C#CCCCCC(=O)NCCN)nc31)C(O)C2O` (stereo not drawn) [Compound 38, (1′S,2′R,3′S,4′S,5′S)-4′-[6-(3-Chlorobenzylamino)-2-(6-(β-aminoethylaminocarbonyl)-1-hexynyl)-9-yl]-2′,3′-dihydroxybicyclo[3.1.0]hexane-1′-carboxylic acid N-methylamide], the inhibitory constant (Ki) in [2] stood at 3.4 ± 0.7 nM; in assay [3], 277 ± 33 nM. In assay [5], the A1 % inhib. result is recorded as “(21 ± 6%)”.
Take `CNC(=O)C12CC1C(n1cnc3c(NCc4cccc(Cl)c4)nc(C#CCCC(=O)NCCNCCN)nc31)C(O)C2O` (stereo not drawn) [Compound 41]: the figures for the Ki in assay [2] and in assay [3] were 15.4 ± 4.4 nM and 890 ± 110 nM, respectively. The A1 % inhib. entry in [5] is “(14 ± 8%)”.
Turning to `CNC(=O)C12CC1C(n1cnc3c(NCC(c4ccccc4)c4ccccc4)nc(Cl)nc31)C(O)C2O` (stereo not drawn) [Compound 18], the Ki came to 1810 ± 581 nM in assay [1], 1.67 ± 0.09 nM in [4] and 6.83 ± 1.5 nM in assay [6]. Also, in [4], the “Selectivity A1/A3” value came to 4.1.
As to `CNC(=O)C12CC1C(n1cnc3c(NCc4cccc(C#CCCCC(=O)O)c4)nc(Cl)nc31)C(O)C2O` (stereo not drawn) [Compound 9], in assay [1], the inhibition at 100 µM is 5%. Further, the inhibition at 10 µM in assay [3] was found to be 14%.
Take `CNC(=O)C12CC1C(n1cnc3c(NCc4cc(OC)ccc4OC)nc(I)nc31)C(O)C2O` (stereo not drawn) [Compound 2, (1′S,2′R,3′S,4′S,5′S)-4′-[6-(2,5-Dimethoxybenzylamino)-2-iodopurin-9-yl]-2′,3′-dihydroxybicyclo[3.1.0]hexane-1′-carboxylic acid N-methylamide]: the inhibition at 100 µM in [1] worked out at 14%. In addition, in [3], the inhibition at 10 µM is 35%.
In the case of `CNC(=O)[C@@]12C[C@@H]1[C@@H](n1cnc3c(NCc4cccc(Cl)c4)nc(C#Cc4cccc(C(=O)O)c4)nc31)[C@H](O)[C@@H]2O` [Compound 333, 3-((6-(3-Chlorobenzylamino)-9-((1S,2R,3S,4R,5S)-3,4-dihydroxy-5-(methylcarbamoyl)bicyclo[3.1.0]hexan-2-yl)-9H-purin-2-yl)ethynyl)benzoic acid], the Ki at hA3AR turned out to be 6.75 ± 2.78 nM. Moreover, the inhibition at 10 µM at hA2AAR came to 38%; at hA1AR, 1%.
Regarding `CNC(=O)C12CC1C(n1cnc3c(NCc4cccc(Cl)c4)nc(I)nc31)C(O)C2O` (stereo not drawn) [Compound 1], the inhibition at 100 µM in assay [1] came out at 40%. Also, the Ki in [3] was above 10000 nM.
On to `CNC(=O)C12CC1C(n1cnc3c(NCc4cccc(C#CCCCC(=O)NCCNC(C)=O)c4)nc(Cl)nc31)C(O)C2O` (stereo not drawn) [Compound 11], for which the inhibition at 100 µM in assay [1] was found to be 68%. Also, the inhibition at 10 µM in assay [3] stood at 80%.
As to `CNC(=O)[C@@]12C[C@@H]1[C@@H](n1cnc3c(NC)nc(C#Cc4ccc(F)c(F)c4)nc31)[C@H](O)[C@@H]2O` [Compound 319, (1S,2R,3S,4R,5S)-4-(2-((3,4-Difluorophenyl)ethynyl)-6-(methylamino)-9H-purin-9-yl)-2,3-dihydroxy-N-methylbicyclo[3.1.0]hexane-1-carboxamide], the Ki on hA3AR was found to be 1.65 ± 0.08 nM. Also, the inhibition at 10 µM at hA2AAR and at hA1AR was 6% throughout.
On to `CNC(=O)C12CC1C(n1cnc3c(NCc4cccc(Cl)c4)nc(C#CCCC(=O)NCCCN)nc31)C(O)C2O` (stereo not drawn) [Compound 39, (1′S, 2′R, 3′S, 4′S, 5′S)-4′-[6-(3-Chlorobenzylamino)-2-(4-(β-aminopropylaminocarbonyl)-1-butynyl)-9-yl]-2′,3′-dihydroxybicyclo[3.1.0]hexane-1′-carboxylic acid N-methylamide], for which the Ki in [2] worked out at 3.1 ± 0.4 nM; in assay [3] it was 979 ± 181 nM. Besides, the A1 % inhib. result in assay [5] is recorded as “(16 ± 4%)”.

The term Ki denotes a dissociation constant, usually derived from enzyme kinetics or from competition with a known ligand.
